From PMC12833730, “Discovery of a First‐in‐Class Covalent Allosteric SHP1 Inhibitor with Immunotherapeutic Activity” (Angewandte Chemie (International Ed. in English), 2025)
Read-outs that look alike come from different tables or passages of the source.

Test: Pharmacokinetics in mice
Type: in vivo, C57BL/6 mice
Parameters: AUC: unit not given here
Method: Given M029's superb potency, selectivity, and target engagement, we considered that these desirable attributes make it a powerful chemical probe for interrogating the roles of SHP1 in biological processes and a promising lead for further development into an SHP1‐targeted therapy. […] To that end, we determined the pharmacokinetic (PK) properties of M029 in mice by administrating the compound via intraperitoneal (IP), intravenous (IV), and oral (PO) routes at a concentration of 25 mg/kg (Figure S4). […] Importantly, M029 is orally bioavailable. […] Moreover, even with the 25 mg/kg oral gavage, the plasma concentration of M029 was maintained several‐fold higher than its biochemical IC50 and two‐fold above its cellular EC50 for Jurkat T cell activation for at least 1 h duration (Figure S4). These PK properties ensure that adequate M029 compound exposure can be achieved to assess the effect of SHP1 inhibition in vivo.
Figure S4. Pharmacokinetic parameters of M029. Curves of (A) PO, (B) IP, (C) IV dosage of M029 at 25 mg/kg in WT C57BL/6 mice. Results were analyzed using GraphPad Prism 10.4.2. The figure is plotted as average ± standard error of the mean (SEM).
All the in vivo studies were performed under an animal protocol (1511001324) approved by the Institutional Animal Care & Use Committee of Purdue University, in accordance with the recommendations in the Guide for the Care and Use of Laboratory Animals of the National Institutes of Health. For PK study, C57BL6 female mice (25-30g body weight) were injected intraperitoneally, orally, or intravenously with 25 mg/kg M029 dissolved in 0.4 ml saline. Blood samples were collected through the tail vein at the indicated time points after injection. Isoflurane was used as an anesthetic. All blood samples were centrifuged at 1,500 g for 5 minutes, and plasma was separated and stored at –80°C until analysis by a validated method based on reversed-phase liquid chromatography coupled to mass-spectrometric detection (LC/MS) using a previously published procedure.^169 For the MC38 syngeneic tumor study, 12-week-old C57BL6 female mice were injected subcutaneously with […] MC38 cells in the right and left flanks for tumor growth. When tumors reached an average volume of 100 mm^3 mice were tumor size-matched and randomly assigned to different experimental groups for experiments. Four mice with eight tumors were used in each treatment group. Mice were injected orally with saline or 25 or 100 mg/kg M029 daily. Tumor sizes and animal weights were measured twice per week. Tumor volume (mm^3) = (length X width^2)/2. At the end of the experiments, mice were euthanized, and tumors were collected for analysis. Among eight tumors collected from each group, four homogenous samples and […] were prepared for Western blots and histology analysis.

With `N#Cc1ccsc1NS(=O)(=O)c1ccc(NC(=O)CCl)cc1` [M029, 2-Chloro-N-(4-(N-(3-cyanothiophen-2-yl)sulfamoyl)phenyl)acetamide] the “duration plasma concentration above biochemical IC50 and two-fold above cellular EC50” value (25 mg/kg oral gavage) was “at least 1 h”, the AUC (female, C57BL/6, mouse, plasma, 25 mg/kg oral, read-out: AUC, oral) was 1410 and the Cmax (female, C57BL/6, mouse, plasma, 25 mg/kg oral, read-out: Cmax, oral) was 29.8 ± 7.1 µM. The half-life (female, C57BL/6, mouse, plasma, 25 mg/kg oral, read-out: t1/2, oral) was 38.5 ± 7.6 min, the AUC (female, C57BL/6, mouse, plasma, ip, 25 mg/kg intraperitoneal, read-out: area under the curve (AUC), IP) was 5090 and the half-life (female, C57BL/6, mouse, plasma, ip, 25 mg/kg intraperitoneal, read-out: half-life (t1/2), IP) was 36.3 ± 5.7 min. The Cmax (female, C57BL/6, mouse, plasma, ip, 25 mg/kg intraperitoneal, read-out: peak plasma concentration (Cmax), IP) was 122 ± 28.2 µM and the bioavailability (female, C57BL/6, mouse, plasma, po, 25 mg/kg, read-out: oral bioavailability (%F)) was 18%.
